According to US8791132B2, “Compounds and methods for treatment of hypertension” (Medivation Technologies, Inc., priority 2011, dated 2014):
Values joined by “and” are separate entries in the source; they are usually repeats but may differ in a detail not shown here. Equal entries are not always repeated. Where two headings read alike, the source gives them in different places.

How the values were obtained:
[1] = biological target: T1, rat adrenergic α1B receptor (Rattus norvegicus, UniProt P15823); assay: Radioligand binding, adrenergic α1B ([3H]Prazosin); conditions: for inhibition at 0.03 µM: read-out: Percentage inhibition of ligand binding, Adrenergic α1B (0.03 μM), compound at 0.03 μM; for inhibition at 0.1 µM: read-out: Percentage inhibition of ligand binding, Adrenergic α1B (0.1 μM), compound at 0.1 μM; for Percentage inhibition of ligand binding, Adrenergic α1B: repeat assays, each datapoint shown
T1 construct: rat adrenergic α1B receptor obtained from Wistar Rat liver; from tissue; host or cells: Wistar rat liver
T1 sequence (P15823 1-515): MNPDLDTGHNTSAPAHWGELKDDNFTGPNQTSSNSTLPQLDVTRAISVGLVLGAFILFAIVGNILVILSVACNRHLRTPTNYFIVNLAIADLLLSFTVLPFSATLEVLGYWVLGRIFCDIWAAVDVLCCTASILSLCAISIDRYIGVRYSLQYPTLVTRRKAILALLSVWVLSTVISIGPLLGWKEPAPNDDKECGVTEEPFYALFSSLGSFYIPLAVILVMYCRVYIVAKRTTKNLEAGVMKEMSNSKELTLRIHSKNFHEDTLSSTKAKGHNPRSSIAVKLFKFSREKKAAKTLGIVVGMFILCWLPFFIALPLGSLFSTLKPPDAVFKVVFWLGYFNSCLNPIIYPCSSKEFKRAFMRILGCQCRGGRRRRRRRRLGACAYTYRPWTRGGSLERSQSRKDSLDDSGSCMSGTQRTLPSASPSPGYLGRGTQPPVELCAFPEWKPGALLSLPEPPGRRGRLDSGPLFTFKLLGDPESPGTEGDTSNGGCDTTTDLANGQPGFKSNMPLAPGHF
Summary of the method: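 Rat α1B receptor from Wistar rat liver was incubated with 0.25 nM [3H]prazosin for 60 min at 25 °C in 50 mM Tris-HCl, pH 7.4, 0.5 mM EDTA. Non-specific binding was defined with 10 μM phentolamine. Bound radioligand was measured by filtration and counting, reported as percent inhibition of specific binding.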

[2] = biological target: T2, human recombinant adrenergic α1D receptor (Homo sapiens, UniProt P25100); assay: Radioligand binding, adrenergic α1D ([3H]Prazosin); conditions: [3H]Prazosin
T2 construct: expressed in transfected cells; host or cells: HEK-293
T2 sequence (P25100 1-572): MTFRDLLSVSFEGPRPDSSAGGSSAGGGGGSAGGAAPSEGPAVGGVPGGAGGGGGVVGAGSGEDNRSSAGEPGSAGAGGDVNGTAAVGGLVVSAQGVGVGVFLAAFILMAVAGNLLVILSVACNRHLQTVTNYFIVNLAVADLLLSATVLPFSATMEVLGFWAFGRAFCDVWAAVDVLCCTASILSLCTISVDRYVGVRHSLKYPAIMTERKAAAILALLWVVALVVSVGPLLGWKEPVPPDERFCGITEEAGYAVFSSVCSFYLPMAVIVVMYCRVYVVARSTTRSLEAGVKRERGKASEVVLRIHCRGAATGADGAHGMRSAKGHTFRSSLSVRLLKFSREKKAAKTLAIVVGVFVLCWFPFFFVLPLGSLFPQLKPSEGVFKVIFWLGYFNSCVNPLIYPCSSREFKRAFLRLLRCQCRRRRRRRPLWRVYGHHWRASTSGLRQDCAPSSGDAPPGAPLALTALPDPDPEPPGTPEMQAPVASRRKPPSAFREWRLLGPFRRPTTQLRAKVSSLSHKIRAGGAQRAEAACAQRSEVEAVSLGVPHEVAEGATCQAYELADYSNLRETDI
Protocol: Compounds were incubated with 0.6 nM [3H]Prazosin for 60 min at 25° C. Non-specific binding was estimated in the presence of 10 μM phentolamine. Receptor proteins were filtered and washed, the filters were then counted to determine [3H]Prazosin specifically bound. […] Biochemical assay results are presented as the percent inhibition of specific binding in Table B1.

[3] = biological target: T3, human recombinant adrenergic α2A receptor (Homo sapiens, UniProt P08913); assay: Radioligand binding, adrenergic α2A ([3H]MK-912); conditions: for inhibition at 0.1 µM: read-out: Percentage inhibition of ligand binding, Adrenergic α2A (0.1 μM), compound at 0.1 μM
T3 construct: expressed in transfected cells; host or cells: insect Sf9 cells
T3 sequence (P08913 1-465): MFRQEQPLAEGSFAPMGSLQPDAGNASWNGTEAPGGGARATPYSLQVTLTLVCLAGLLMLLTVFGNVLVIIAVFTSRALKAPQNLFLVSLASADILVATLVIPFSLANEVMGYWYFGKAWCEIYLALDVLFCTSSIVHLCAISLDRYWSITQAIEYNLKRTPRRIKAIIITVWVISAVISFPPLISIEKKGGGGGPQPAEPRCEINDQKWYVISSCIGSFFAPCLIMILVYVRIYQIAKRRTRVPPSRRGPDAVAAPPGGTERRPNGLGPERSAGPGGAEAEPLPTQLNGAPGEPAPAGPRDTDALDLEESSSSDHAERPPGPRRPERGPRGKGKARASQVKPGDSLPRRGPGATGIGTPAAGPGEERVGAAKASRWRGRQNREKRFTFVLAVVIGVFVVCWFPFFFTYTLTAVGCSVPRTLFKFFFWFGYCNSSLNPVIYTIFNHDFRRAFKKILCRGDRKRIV
Summary of the method: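 Displacement of 1 nM [3H]MK-912 from receptor produced in insect Sf9 cells was measured after 60 min at 25 °C. Readout: percent inhibition of specific binding.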

[4] = [3H]Prazosin, repeat datapoints each shown
[5] = compound at 0.1 μM, [3H]MK-912, repeat datapoints each shown, 0.1 µM
[6] = read-out: Percentage inhibition of ligand binding, Adrenergic α2A (0.03 μM), compound at 0.03 μM, [3H]MK-912, repeat datapoints each shown
[7] = compound at 0.1 μM, [3H]Prazosin, repeat datapoints each shown, 0.1 µM
[8] = read-out: Percentage inhibition of ligand binding, Adrenergic α1D (0.1 μM), compound at 0.1 μM, repeat datapoints each shown
[9] = [3H]MK-912, repeat datapoints each shown
[10] = compound at 0.1 μM, repeat datapoints each shown

Row | SMILES | inhibition at 0.03 µM [1, 4] [%] | inhibition at 0.1 µM [1, 4] [%] | Ki [3] | Percentage inhibition of ligand binding, Adrenergic α2A (0.1 μM) [3, 5] | inhibition at 0.03 µM [3, 6] [%] | Percentage inhibition of ligand binding, Adrenergic α1B (0.1 μM) [1, 7] | inhibition at 0.1 µM [2, 8] [%] | inhibition at 0.1 µM [3, 9] [%] | Percentage inhibition of ligand binding, Adrenergic α1D (0.1 μM) [2, 10] [%] | other results
1 | CN1CCc2c(c3cccc(Cl)c3n2CCc2ccccc2)C1 [compound 216] | 34 | 65 | 9.59 nM | 76% and 98% | 58 |  |  |  |  | Percentage inhibition of ligand binding, Adrenergic α1B (0.03 μM) ([1]; compound at 0.03 μM, [3H]Prazosin, repeat datapoints each shown, 0.03 µM): 47%; inhibition at 0.03 µM ([2]; read-out: Percentage inhibition of ligand binding, Adrenergic α1D (0.03 μM), compound at 0.03 μM, repeat datapoints each shown): 38%
2 | Cc1ccc2c(c1)c1c(n2CC(O)c2ccncc2)CCN(C)C1 (single isomer, unassigned) [3b] |  |  | 139 nM and 166 nM and 222 nM |  |  |  |  |  |  | Ki [1]: 51 nM; Percentage inhibition of ligand binding, Adrenergic α1B ([1]; compound at 0.03 μM, [3H]Prazosin, 0.03 µM): 27% and 32% and 34%; Percentage inhibition of ligand binding, Adrenergic α1B ([1]; compound at 0.1 μM, [3H]Prazosin, 0.1 µM): 50% and 55% and 57% and 61%; inhibition at 0.1 µM ([2]; compound at 0.1 μM, repeat assays, each datapoint shown, read-out: Percentage inhibition of ligand binding, Adrenergic α1D): 18%; inhibition at 0.03 µM ([3]; compound at 0.03 μM, [3H]MK-912, repeat assays, each datapoint shown, read-out: Percentage inhibition of ligand binding, Adrenergic α2A): 1%; Percentage inhibition of ligand binding, Adrenergic α2A ([3]; compound at 0.1 μM, [3H]MK-912, repeat assays, each datapoint shown, 0.1 µM): 21% and 22% and 23% and 25%
3 | COc1ccc(/C(C)=C/n2c3c(c4cc(Cl)ccc42)CCN(C)CC3)cc1F [compound 240] |  | 74 |  | 87% |  | 75% | 44 | 82 | 47 | 
4 | Cc1ccc2c(c1)c1c(n2CC(C)(O)c2ccc(O)cc2)CCN(C)C1 (centres unmarked) [compound 98] |  | 81 |  | 32% |  | 83% | 31 | 26 | 35 | 
5 | CCN1CCc2c(c3cc(C)ccc3n2CC(O)c2ccc(C)cc2)C1 (centres unmarked) [compound 203] | 37 |  |  | 88% |  | 71% | 47 |  |  | 
6 | Cc1ccc(CCn2c3c(c4cc(C)ccc42)CN(C)CC3)cc1 [compound 180, 2,3,4,5-tetrahydro-2,8-dimethyl-5-(4-methylphenethyl)-1H-pyrido[4,3-b]indole] | 70 | 87 |  |  |  |  | 74 | 95 |  | 
7 | CN1CCc2c(c3ccccc3n2CCc2ccccc2)C1 [compound 182, 2,3,4,5-Tetrahydro-2-methyl-5-phenethyl-1H-pyrido[4,3-b]indole] | 13 | 29 |  |  |  |  | 16 | 69 |  | 

Now from value to compound, other results behind:

Row | inhibition at 0.03 µM [1, 4] [%] | inhibition at 0.1 µM [1, 4] [%] | Ki [3] | Percentage inhibition of ligand binding, Adrenergic α2A (0.1 μM) [3, 5] | inhibition at 0.03 µM [3, 6] [%] | Percentage inhibition of ligand binding, Adrenergic α1B (0.1 μM) [1, 7] | inhibition at 0.1 µM [2, 8] [%] | inhibition at 0.1 µM [3, 9] [%] | Percentage inhibition of ligand binding, Adrenergic α1D (0.1 μM) [2, 10] [%] | SMILES | other results
8 | 26 |  | 2.86 nM | 86% | 71 | 31% and 55% | 16 | 81 |  | C/C(=C\n1c2c(c3cc(C)ccc31)CN(C)CC2)c1sccc1C [compound 189] | 
9 |  | 61 |  | 15% |  | 79% | 45 | 14 | 48 | C/C(=C\n1c2c(c3cc(C)ccc31)CN(C)CC2)c1ccncn1 [compound 101] | 
10 |  | 71 | 17.9 nM | 63% and 84% | 41 |  | 83 |  |  | C/C(=C\n1c2c(c3cc(C)ccc31)CN(C)CC2)c1cnc(N(C)C)nc1 [compound 187] | 
